From ChEMBL document CHEMBL4507290 (2021)

Assays:
[1] = tested on: Receptor-type tyrosine-protein kinase FLT3 (Homo sapiens), P36888 [N841I]; details: Compound concentration 1000.0 nM
[2] = tested on: Epidermal growth factor receptor (Homo sapiens), P00533 [UNDEFINED MUTATION]; details: Compound concentration 1000.0 nM
[3] = molecular target: Calcium/calmodulin-dependent protein kinase kinase 1 (Homo sapiens) (UniProt Q8N5S9); details: Compound concentration 1000.0 nM
[4] = molecular target: Activin receptor type-1 (Homo sapiens) (UniProt Q04771); details: Compound concentration 1000.0 nM
[5] = molecular target: Angiopoietin-1 receptor (Homo sapiens) (UniProt Q02763); details: Compound concentration 1000.0 nM
[6] = molecular target: Tyrosine-protein kinase JAK1 (Homo sapiens) (UniProt P23458); details: Compound concentration 1000.0 nM
[7] = molecular target: RAF proto-oncogene serine/threonine-protein kinase (Homo sapiens) (UniProt P04049); details: Compound concentration 1000.0 nM
[8] = molecular target: Ephrin type-A receptor 3 (Homo sapiens) (UniProt P29320); details: Compound concentration 1000.0 nM
[9] = molecular target: Phosphorylase b kinase regulatory subunit alpha, liver isoform (Homo sapiens) (UniProt P46019); details: Compound concentration 1000.0 nM
Phosphorylase b kinase regulatory subunit alpha, liver isoform (Homo sapiens), sequence (P46019 whole entry, canonical isoform): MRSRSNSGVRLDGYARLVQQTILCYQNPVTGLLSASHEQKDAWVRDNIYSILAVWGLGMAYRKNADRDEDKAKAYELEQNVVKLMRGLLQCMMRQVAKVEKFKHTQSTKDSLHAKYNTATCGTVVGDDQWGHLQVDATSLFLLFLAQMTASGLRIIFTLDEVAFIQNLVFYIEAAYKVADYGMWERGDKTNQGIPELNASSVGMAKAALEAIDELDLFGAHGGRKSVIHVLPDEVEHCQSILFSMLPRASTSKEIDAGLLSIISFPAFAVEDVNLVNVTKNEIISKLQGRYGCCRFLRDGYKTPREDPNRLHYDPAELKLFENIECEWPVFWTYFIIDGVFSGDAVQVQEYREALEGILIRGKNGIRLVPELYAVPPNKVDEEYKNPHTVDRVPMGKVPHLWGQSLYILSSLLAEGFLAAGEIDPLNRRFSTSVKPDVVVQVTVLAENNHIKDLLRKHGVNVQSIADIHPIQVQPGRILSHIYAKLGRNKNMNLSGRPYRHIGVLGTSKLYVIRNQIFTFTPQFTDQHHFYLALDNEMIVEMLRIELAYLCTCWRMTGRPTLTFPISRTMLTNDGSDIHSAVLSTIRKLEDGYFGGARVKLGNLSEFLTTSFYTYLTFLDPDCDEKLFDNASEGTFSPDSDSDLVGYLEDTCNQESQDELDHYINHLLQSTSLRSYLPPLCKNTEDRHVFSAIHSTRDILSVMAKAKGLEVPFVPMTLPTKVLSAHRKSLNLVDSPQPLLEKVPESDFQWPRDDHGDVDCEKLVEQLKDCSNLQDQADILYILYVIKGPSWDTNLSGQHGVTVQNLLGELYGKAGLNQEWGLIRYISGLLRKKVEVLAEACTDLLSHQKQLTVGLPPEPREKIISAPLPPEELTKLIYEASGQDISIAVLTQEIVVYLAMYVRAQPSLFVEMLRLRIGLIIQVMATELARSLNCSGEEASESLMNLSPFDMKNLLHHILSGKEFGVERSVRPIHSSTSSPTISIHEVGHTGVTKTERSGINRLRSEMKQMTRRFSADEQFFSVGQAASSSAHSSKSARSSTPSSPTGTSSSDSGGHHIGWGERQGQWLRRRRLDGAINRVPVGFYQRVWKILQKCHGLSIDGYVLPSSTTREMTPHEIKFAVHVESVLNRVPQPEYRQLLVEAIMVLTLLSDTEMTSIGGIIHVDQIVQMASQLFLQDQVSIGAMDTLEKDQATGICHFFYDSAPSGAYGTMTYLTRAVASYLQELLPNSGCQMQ

[10] = molecular target: Mitogen-activated protein kinase 1 (Homo sapiens) (UniProt P28482); details: Compound concentration 1000.0 nM
Mitogen-activated protein kinase 1 (Homo sapiens), sequence (P28482 whole entry): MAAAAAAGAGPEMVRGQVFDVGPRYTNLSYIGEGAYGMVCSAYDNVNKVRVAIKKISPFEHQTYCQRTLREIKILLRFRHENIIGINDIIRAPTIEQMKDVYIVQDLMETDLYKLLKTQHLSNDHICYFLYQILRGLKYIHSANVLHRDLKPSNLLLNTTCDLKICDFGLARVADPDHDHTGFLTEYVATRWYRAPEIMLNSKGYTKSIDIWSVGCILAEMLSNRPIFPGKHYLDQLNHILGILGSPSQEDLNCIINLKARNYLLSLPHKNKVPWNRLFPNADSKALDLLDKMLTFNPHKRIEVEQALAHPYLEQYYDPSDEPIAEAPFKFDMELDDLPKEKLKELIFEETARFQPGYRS

[11] = molecular target: Serine/threonine-protein kinase 26 (Homo sapiens) (UniProt Q9P289); details: Compound concentration 1000.0 nM
[12] = molecular target: Mitogen-activated protein kinase kinase kinase kinase 3 (Homo sapiens) (UniProt Q8IVH8); details: Compound concentration 1000.0 nM
[13] = molecular target: Phosphatidylinositol 4-kinase beta (Homo sapiens) (UniProt Q9UBF8); details: Compound concentration 1000.0 nM
[14] = molecular target: Serine/threonine-protein kinase 17B (Homo sapiens) (UniProt O94768); details: Compound concentration 1000.0 nM
[15] = molecular target: Insulin receptor-related protein (Homo sapiens) (UniProt P14616); details: Compound concentration 1000.0 nM
[16] = molecular target: Fibroblast growth factor receptor 3 (Homo sapiens) (UniProt P22607); details: Compound concentration 1000.0 nM
[17] = tested on: eIF-2-alpha kinase GCN2 (Homo sapiens), Q9P2K8 [S808G]; details: Compound concentration 1000.0 nM
[18] = molecular target: Dual specificity mitogen-activated protein kinase kinase 3 (Homo sapiens) (UniProt P46734); details: Compound concentration 1000.0 nM
[19] = molecular target: Cyclin-dependent kinase-like 1 (Homo sapiens) (UniProt Q00532); details: Compound concentration 1000.0 nM
[20] = molecular target: Mitogen-activated protein kinase kinase kinase 13 (Homo sapiens) (UniProt O43283); details: Compound concentration 1000.0 nM
[21] = molecular target: Serine/threonine-protein kinase WNK2 (Homo sapiens) (UniProt Q9Y3S1); details: Compound concentration 1000.0 nM
Serine/threonine-protein kinase WNK2 (Homo sapiens), sequence (Q9Y3S1 whole entry): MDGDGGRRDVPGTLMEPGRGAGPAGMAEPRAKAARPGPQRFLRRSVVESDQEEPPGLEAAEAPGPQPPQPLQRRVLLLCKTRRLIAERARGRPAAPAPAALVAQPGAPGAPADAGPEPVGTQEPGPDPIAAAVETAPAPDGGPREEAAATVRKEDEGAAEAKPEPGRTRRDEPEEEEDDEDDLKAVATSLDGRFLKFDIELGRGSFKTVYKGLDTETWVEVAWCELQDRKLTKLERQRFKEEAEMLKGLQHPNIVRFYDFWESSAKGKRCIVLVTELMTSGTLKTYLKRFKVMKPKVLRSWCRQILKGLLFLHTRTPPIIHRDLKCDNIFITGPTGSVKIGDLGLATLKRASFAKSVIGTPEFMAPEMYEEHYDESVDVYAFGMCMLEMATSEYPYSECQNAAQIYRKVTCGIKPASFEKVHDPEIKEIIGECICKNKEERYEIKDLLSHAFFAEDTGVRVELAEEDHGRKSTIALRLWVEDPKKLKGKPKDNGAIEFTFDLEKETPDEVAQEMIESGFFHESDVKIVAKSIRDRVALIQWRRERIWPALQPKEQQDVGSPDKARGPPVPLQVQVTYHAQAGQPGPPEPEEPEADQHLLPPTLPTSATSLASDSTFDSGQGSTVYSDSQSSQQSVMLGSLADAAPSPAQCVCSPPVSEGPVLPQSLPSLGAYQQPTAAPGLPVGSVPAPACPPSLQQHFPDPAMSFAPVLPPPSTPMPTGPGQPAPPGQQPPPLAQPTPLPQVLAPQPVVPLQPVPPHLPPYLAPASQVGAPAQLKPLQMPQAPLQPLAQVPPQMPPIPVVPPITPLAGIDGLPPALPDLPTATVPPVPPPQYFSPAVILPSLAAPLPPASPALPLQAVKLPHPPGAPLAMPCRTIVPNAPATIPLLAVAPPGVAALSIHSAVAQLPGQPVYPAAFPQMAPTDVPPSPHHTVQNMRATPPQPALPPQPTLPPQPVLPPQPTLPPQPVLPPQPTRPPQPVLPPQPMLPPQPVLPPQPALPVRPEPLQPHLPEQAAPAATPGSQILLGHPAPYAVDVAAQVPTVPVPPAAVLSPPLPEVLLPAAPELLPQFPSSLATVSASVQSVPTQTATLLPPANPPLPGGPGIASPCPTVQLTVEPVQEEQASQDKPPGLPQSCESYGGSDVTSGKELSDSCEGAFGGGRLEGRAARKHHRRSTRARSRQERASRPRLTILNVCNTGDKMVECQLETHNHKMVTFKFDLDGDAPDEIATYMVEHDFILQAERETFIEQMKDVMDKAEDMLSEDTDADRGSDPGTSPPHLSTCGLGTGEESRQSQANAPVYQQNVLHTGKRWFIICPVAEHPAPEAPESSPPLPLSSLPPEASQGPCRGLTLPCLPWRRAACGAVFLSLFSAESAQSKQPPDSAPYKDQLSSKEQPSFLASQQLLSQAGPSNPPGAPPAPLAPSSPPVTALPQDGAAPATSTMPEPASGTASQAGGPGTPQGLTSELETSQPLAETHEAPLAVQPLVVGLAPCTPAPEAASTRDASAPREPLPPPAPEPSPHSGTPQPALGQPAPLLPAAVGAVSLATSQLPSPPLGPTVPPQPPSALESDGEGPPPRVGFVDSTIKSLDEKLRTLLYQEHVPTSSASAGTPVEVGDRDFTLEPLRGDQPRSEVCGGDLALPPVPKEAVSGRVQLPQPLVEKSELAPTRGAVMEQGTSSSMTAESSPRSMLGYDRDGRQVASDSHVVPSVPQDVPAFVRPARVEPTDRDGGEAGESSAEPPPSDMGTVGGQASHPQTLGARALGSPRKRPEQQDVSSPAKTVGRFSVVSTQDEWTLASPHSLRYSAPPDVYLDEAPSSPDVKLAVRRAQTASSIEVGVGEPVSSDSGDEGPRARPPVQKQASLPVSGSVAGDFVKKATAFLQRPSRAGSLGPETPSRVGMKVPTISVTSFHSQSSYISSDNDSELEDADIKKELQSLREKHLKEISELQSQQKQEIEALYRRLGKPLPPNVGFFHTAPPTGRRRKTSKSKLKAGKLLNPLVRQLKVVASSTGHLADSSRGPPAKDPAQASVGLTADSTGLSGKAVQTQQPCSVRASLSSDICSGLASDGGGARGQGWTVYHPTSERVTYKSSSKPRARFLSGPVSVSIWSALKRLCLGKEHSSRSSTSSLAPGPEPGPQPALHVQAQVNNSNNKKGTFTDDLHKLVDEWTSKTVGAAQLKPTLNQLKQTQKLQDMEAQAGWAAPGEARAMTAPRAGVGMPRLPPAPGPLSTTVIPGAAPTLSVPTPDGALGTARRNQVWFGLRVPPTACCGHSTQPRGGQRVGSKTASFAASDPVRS

[22] = molecular target: Dual specificity protein kinase CLK2 (Homo sapiens) (UniProt P49760); details: Compound concentration 1000.0 nM
[23] = molecular target: Dual specificity mitogen-activated protein kinase kinase 5 (Homo sapiens) (UniProt Q13163); details: Compound concentration 1000.0 nM
[24] = tested on: Mast/stem cell growth factor receptor Kit (Homo sapiens), P10721 [A829P]; details: Compound concentration 1000.0 nM
[25] = molecular target: Mitogen-activated protein kinase 7 (Homo sapiens) (UniProt Q13164); details: Compound concentration 1000.0 nM
[26] = tested on: Tyrosine-protein kinase ABL1 (Homo sapiens), P00519 [H396P]; details: Compound concentration 1000.0 nM
[27] = tested on: Proto-oncogene tyrosine-protein kinase receptor Ret (Homo sapiens), P07949 [V804M]; details: Compound concentration 1000.0 nM
Proto-oncogene tyrosine-protein kinase receptor Ret (Homo sapiens), P07949 [V804M], sequence (P07949 whole entry V804M): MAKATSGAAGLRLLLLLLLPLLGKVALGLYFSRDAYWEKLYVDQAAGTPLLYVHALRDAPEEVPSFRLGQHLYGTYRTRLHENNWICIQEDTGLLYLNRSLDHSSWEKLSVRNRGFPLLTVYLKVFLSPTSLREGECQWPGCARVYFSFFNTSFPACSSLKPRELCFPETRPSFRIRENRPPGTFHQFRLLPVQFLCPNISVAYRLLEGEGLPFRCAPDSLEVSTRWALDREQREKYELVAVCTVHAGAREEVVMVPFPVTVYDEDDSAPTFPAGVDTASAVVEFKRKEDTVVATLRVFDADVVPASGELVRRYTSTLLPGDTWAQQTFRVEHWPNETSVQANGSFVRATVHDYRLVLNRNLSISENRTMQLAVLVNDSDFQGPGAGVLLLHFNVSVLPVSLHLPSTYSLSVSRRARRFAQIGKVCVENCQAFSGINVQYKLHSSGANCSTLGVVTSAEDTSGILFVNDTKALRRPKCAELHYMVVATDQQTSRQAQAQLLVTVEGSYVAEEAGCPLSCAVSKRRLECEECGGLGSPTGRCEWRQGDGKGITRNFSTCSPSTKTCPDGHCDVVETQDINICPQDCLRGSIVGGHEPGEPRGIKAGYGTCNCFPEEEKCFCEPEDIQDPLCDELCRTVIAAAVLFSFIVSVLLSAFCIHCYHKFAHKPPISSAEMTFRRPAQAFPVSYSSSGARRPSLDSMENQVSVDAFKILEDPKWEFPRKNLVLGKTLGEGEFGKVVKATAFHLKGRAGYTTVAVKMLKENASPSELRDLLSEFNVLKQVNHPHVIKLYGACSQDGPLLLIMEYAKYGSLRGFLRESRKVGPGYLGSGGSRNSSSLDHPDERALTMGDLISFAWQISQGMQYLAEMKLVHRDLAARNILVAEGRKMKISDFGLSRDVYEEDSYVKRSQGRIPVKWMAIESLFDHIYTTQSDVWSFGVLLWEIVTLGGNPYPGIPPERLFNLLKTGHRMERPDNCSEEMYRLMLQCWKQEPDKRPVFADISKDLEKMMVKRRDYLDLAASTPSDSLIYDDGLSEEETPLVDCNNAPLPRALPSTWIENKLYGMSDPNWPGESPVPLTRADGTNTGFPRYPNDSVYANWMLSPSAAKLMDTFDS

[28] = molecular target: Serine/threonine-protein kinase Nek2 (Homo sapiens) (UniProt P51955); details: Compound concentration 1000.0 nM
[29] = molecular target: Ribosomal protein S6 kinase alpha-6 (Homo sapiens) (UniProt Q9UK32); details: Compound concentration 1000.0 nM
[30] = tested on: Epidermal growth factor receptor (Homo sapiens), P00533 [G719C]; details: Compound concentration 1000.0 nM
[31] = molecular target: Calcium/calmodulin-dependent protein kinase type II subunit beta (Homo sapiens) (UniProt Q13554); details: Compound concentration 1000.0 nM
[32] = molecular target: Serine/threonine-protein kinase LATS1 (Homo sapiens) (UniProt O95835); details: Compound concentration 1000.0 nM
[33] = molecular target: Protein kinase C eta type (Homo sapiens) (UniProt P24723); details: Compound concentration 1000.0 nM
[34] = tested on: ALK tyrosine kinase receptor (Homo sapiens), Q9UM73 [C1156Y]; details: Compound concentration 1000.0 nM
[35] = molecular target: Mu-type opioid receptor (Homo sapiens) (UniProt P35372); details: Compound concentration 10.0 uM
[36] = molecular target: Tyrosine-protein kinase BTK (Homo sapiens) (UniProt Q06187); details: Compound concentration 1000.0 nM
[37] = molecular target: Mitogen-activated protein kinase kinase kinase 19 (Homo sapiens) (UniProt Q56UN5); details: Compound concentration 1000.0 nM
[38] = molecular target: Histamine H4 receptor (Homo sapiens) (UniProt Q9H3N8); details: Compound concentration 10.0 uM
[39] = molecular target: Mitogen-activated protein kinase 9 (Homo sapiens) (UniProt P45984); details: Compound concentration 1000.0 nM
[40] = tested on: Receptor-type tyrosine-protein kinase FLT3 (Homo sapiens), P36888 [D835Y]; details: Compound concentration 1000.0 nM
[41] = molecular target: Phosphatidylinositol 3-kinase catalytic subunit type 3 (Homo sapiens) (UniProt Q8NEB9); details: Compound concentration 1000.0 nM
[42] = molecular target: Tyrosine-protein kinase ITK/TSK (Homo sapiens) (UniProt Q08881); details: Compound concentration 1000.0 nM
[43] = molecular target: Mitogen-activated protein kinase kinase kinase 7 (Homo sapiens) (UniProt O43318); details: Compound concentration 1000.0 nM
[44] = molecular target: Proto-oncogene tyrosine-protein kinase ROS (Homo sapiens) (UniProt P08922); details: Compound concentration 1000.0 nM
[45] = molecular target: Tyrosine-protein kinase Fyn (Homo sapiens) (UniProt P06241); details: Compound concentration 1000.0 nM

CN([C@@H]1CCc2c(CC(=O)O)c3cc(S(C)(=O)=O)ccc3n2C1)S(=O)(=O)c1ccc(F)cc1
inactive: residual activity [1] 100% | residual activity [2] 100% | residual activity [3] 100% | residual activity [4] 90% | residual activity [5] 88% | residual activity [6] 94% | residual activity [7] 100% | residual activity [8] 97% | residual activity [9] 100% | residual activity [10] 77% | residual activity [11] 77% | residual activity [12] 100% | residual activity [13] 98% | residual activity [14] 85% | residual activity [15] 100% | residual activity [16] 100% | residual activity [17] 71% | residual activity [18] 88% | residual activity [19] 100% | residual activity [20] 100% | residual activity [21] 80% | residual activity [22] 100% | residual activity [23] 100% | residual activity [24] 100% | residual activity [25] 96% | residual activity [26] 55% | residual activity [27] 100% | residual activity [28] 100% | residual activity [29] 100% | residual activity [30] 98% | residual activity [31] 100% | residual activity [32] 61% | residual activity [33] 100% | residual activity [34] 72% | inhibition [35] 7.34% | residual activity [36] 90% | residual activity [37] 79% | inhibition [38] 16% | residual activity [39] 100% | residual activity [40] 100% | residual activity [41] 100% | residual activity [42] 100% | residual activity [43] 100% | residual activity [44] 87% | residual activity [45] 99%

CN([C@@H]1CCc2c(CC(=O)O)c3ccccc3n2C1)S(=O)(=O)c1ccc(F)cc1 [MK-7246]
inactive: residual activity [1] 100% | residual activity [2] 100% | residual activity [3] 91% | residual activity [4] 100% | residual activity [5] 92% | residual activity [6] 83% | residual activity [7] 100% | residual activity [8] 95% | residual activity [9] 100% | residual activity [10] 97% | residual activity [11] 79% | residual activity [12] 100% | residual activity [13] 100% | residual activity [14] 85% | residual activity [15] 100% | residual activity [16] 100% | residual activity [17] 78% | residual activity [18] 84% | residual activity [19] 100% | residual activity [20] 100% | residual activity [21] 92% | residual activity [22] 94% | residual activity [23] 100% | residual activity [24] 100% | residual activity [25] 100% | residual activity [26] 100% | residual activity [27] 98% | residual activity [28] 100% | residual activity [29] 100% | residual activity [30] 100% | residual activity [31] 99% | residual activity [32] 69% | residual activity [33] 100% | residual activity [34] 98% | inhibition [35] 1.33% | residual activity [36] 86% | residual activity [37] 100% | inhibition [38] 25.9% | residual activity [39] 98% | residual activity [40] 100% | residual activity [41] 97% | residual activity [42] 96% | residual activity [43] 100% | residual activity [44] 100% | residual activity [45] 77%
